# In patent US20140106387A1, “METHOD FOR CONTROLLING NAD(P)/NAD(P)H RATIO BY OXIDOREDUCTASE” (MD BIOALPHA CO., LTD., priority 2006, published 2014):
# What was measured:
# cardiomyocytes = experiment: mitochondrial membrane potential (TMRE fluorescence) in cardiomyocytes; format: cell-based
# Description: For determination of the inner mitochondrial membrane potential (ΔΨm), 20 nM of TMRE (tetramethylrhodamine ethyl ester) as a fluorescent indicator was continuously applied to be loaded on cells. In order to monitor mitochondrial Ca^2+, cells on glass coverslips were loaded with 10 μM Rhod-2 AM via cold loading/warm incubation. In order to monitor cytosolic Ca^2+, cells were co-loaded with 10 μM Fluo-4 AM at 37′C for 30 min. The cells were washed twice with a KB solution, and mounted in a perfusion chamber. Fluorescent imaging was taken using a confocal laser scanning microscope (LSM-510 META, Carl Zeiss) at a magnification of ×200 and ×400, in conjunction with appropriate laser lines and a filter set. Image analysis was carried out using LSM-510 META software (Zeiss). Images for TMRE (red fluorescence), Rhod-2 (red fluorescence) and Fluo-4 (green fluorescence) were obtained using an inverted Zeiss 510META laser-scanning confocal microscope equipped with ×63 numerical aperture, 1.4 oil-immersion planapochromat lens. Green fluorescence and red fluorescence were illuminated with light of 488 nm and 543 nm. Incident light was passed through a 545 nm dichroic mirror and observed via a 500 to 530 nm band-pass (green) filter and a 560 nm long-pass (red) barrier filter.
# However, such effects were not observed in HEK293 cells. […]
# AMPK, ACC = experiment: AMPK and ACC phosphorylation in HepG2 cells (Western blot); format: cell-based, human
# Description: Cells were lysed in SDS sample buffer (62.5 mM Tris HCl (pH 6.8), 6% (w/v) SDS, 30% glycerol, 125 mM DTT, and 0.03% (w/v) bromophenol blue). The total cell lysates were boiled at a temperature of 100° C. for 5 min and electrophoresed on a sodium dodecyl sulfate-polyacrylamide gel, and proteins were transferred on a nitrocellulose membrane. The membrane was reacted in TBS (5% (w/v) milk and 0.1% Tween 20) for 1 hour, and then reacted with primary antibodies for 2 hours. Next, the membrane was developed using HRP-conjugated secondary antibodies (Phototope-HRP Western Blot Detection Kit, New England Biolabs, Beverly, Mass.).
# HepG2 (human hepatoma cell line), HEK293 (Human embryonic kidney cell line), and C2C12/L6 myoblasts were purchased from American Type Culture Collection (ATCC, Manassas, Va., USA). LKB−/− MEFs were purchased from R.A. DePinho. Rat ventricular myocytes were enzymatically isolated from the heart of adult […] by a known method. Phosphorylation of AMPK (Thr172) and ACC (Ser79) was measured by Western blot analysis using Cell Signaling Technologies and pan- and phospho-specific antibodies (Upstate Biotechnology, Inc., Lake Placid, N.Y.).
# This Example was carried out to confirm whether an NQO1 activator has effects through NQO1 on phosphorylation of AMPK and ACC that are intracellular energy-regulating proteins. In order to examine phosphorylation of AMP kinase and ACC (acetyl-CoA carboxylase) by the NQO1 activator pyrano-1,2-naphthoquinone, HepG2 cells (Human hepatoma cell line) were seeded onto a 6-well plate at a density of 1×10^5 cells per well, and cultured in a RPMI+10% FBS medium. After growing the cells for 24 hours, the culture medium was replaced with a serum-free RPMI medium and cells were treated with pyrano-1,2-naphthoquinone (10 μM) for 30 min, 1 hr, 2 hrs, 4 hrs and 6 hrs, in combination with a control (DMSO). Anti-ACC and Anti-pS79-ACC were used to observe phosphorylated ACC, whereas Anti-AMPK and Anti-pT172-AMPK were used to observe phosphorylated AMP kinase.
# In order to investigate the importance of an NQO1 protein in phosphorylation of AMP kinase, HepG2, MCF-7 and HEK293 cells were seeded onto 60 mm plates at a density of 1×10^6 cells/plate. After growing the cells for 24 hours, the culture medium was replaced with a serum-free medium, and cells were treated with pyrano-1,2-naphthoquinone (10 μM) for 30 min, respectively, in combination with a control group (DMSO). Cells were lysed in RIPA buffer and amounts of all proteins were quantified using a spectrophotometer, and 50 μg of the protein was subjected to electrophoresis. AMP kinase phosphorylation was examined using Anti-AMPK and Anti-pT172-AMPK, whereas the NQO1 protein was assayed using Anti-NQO1. […]
smiles,measurement,setting,value
"CC1(C)CCC2=C(O1)c1ccccc1C(=O)C2=O [βL, 2,2-Dimethyl-3,4-dihydro-2H-benzo[h]chromene-5,6-dione]",decrease of TMRE fluorescence,cardiomyocytes,about 20%
same,duration of AMP kinase phosphorylation effects,"AMPK, ACC; HepG2, 10 μM",up to 6 hours
same,initial time point at which phosphorylation of AMP kinase was observed,"AMPK, ACC; HepG2, 10 μM",30 min
same,phosphorylation of ACC,"AMPK, ACC; HepG2, 10 μM",also phosphorylated
same,ACC phosphorylation and AMPK phosphorylation/activation,"AMPK, ACC; HepG2 cells",accelerates
